From patent US7396837B2, “Antitumoral analogs of lamellarins” (Pharma Mar, S.A.U., priority 2002, dated 2008)
Where two headings read alike, the source gives them in different places.

Columns and labels:
PANC-1 = experiment: SRB colorimetric cell growth inhibition assay, PANC-1; assay type: cell-based; details: Homo sapiens; for GI50: GI=growth inhibition, read-out: GI50 PANC-1; for IC (TGI): read-out: TGI PANC-1
Summary of the method: (§1)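 Human tumour cells were exposed continuously to the test sample, and growth and viability were quantified by sulforhodamine B staining. Means ± SD came from triplicate wells, and GI, TGI (cytostatic) and LC (cell killing) parameters were derived.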

SK-BR-3 = experiment: SRB colorimetric cell growth inhibition assay, SK-BR-3; assay type: cell-based; details: Homo sapiens; for GI50: GI=growth inhibition, read-out: GI50 SK-BR-3; for IC (TGI): read-out: TGI SK-BR-3
Summary of the method: as §1

SK-MEL-28 = experiment: SRB colorimetric cell growth inhibition assay, SK-MEL-28; assay type: cell-based; details: Homo sapiens; for GI50: GI=growth inhibition, read-out: GI50 MEL-28; for IC (TGI): read-out: TGI MEL-28
Summary of the method: as §1

LoVo-Dox = experiment: SRB colorimetric cell growth inhibition assay, LoVo-Dox (MDR); assay type: cell-based; details: Homo sapiens; for GI50: GI=growth inhibition, read-out: GI50 LOVO-DOX; for IC (TGI): read-out: TGI LOVO-DOX
Summary of the method: as §1

LoVo = experiment: SRB colorimetric cell growth inhibition assay, LoVo; assay type: cell-based; details: Homo sapiens, LoVo; for GI50: GI=growth inhibition, read-out: GI50 LOVO; for IC (TGI): read-out: TGI LOVO
Summary of the method: as §1

human topoisomerase I = biological target: T1, human topoisomerase I (Homo sapiens, UniProt P11387); experiment: Topoisomerase I DNA relaxation assay (supercoiled plasmid DNA); assay type: biochemical; details: supercoiled plasmid DNA, each compound tested at 1 μM, agarose gel with ethidium bromide
T1 sequence (P11387 1-765): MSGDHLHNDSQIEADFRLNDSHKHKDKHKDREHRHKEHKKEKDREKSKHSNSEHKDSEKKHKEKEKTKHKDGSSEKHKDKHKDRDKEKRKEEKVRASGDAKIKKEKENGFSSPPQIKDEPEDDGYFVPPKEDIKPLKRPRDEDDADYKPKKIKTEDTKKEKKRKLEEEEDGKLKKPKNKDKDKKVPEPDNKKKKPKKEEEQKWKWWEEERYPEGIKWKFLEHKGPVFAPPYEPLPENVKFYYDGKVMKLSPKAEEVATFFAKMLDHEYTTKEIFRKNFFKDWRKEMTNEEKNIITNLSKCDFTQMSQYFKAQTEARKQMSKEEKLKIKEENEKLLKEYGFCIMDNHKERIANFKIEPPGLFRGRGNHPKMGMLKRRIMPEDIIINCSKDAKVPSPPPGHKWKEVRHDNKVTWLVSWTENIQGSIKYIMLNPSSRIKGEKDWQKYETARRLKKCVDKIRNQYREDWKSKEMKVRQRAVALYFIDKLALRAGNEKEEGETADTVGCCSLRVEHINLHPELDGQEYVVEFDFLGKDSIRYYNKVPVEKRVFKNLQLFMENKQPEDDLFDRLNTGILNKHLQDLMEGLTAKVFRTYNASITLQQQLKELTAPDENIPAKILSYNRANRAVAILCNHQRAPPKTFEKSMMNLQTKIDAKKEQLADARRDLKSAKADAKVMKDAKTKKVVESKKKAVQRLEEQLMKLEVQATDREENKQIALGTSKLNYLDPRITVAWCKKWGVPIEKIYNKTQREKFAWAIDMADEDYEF
Summary of the method: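 Supercoiled plasmid DNA was relaxed by human topoisomerase I with or without test compound at 1 μM. Products were resolved by agarose gel electrophoresis with ethidium bromide staining.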

LNCaP = experiment: SRB colorimetric cell growth inhibition assay, LNCaP; assay type: cell-based; details: Homo sapiens, LNCaP; for GI50: GI=growth inhibition, read-out: GI50 LN-caP; for IC (TGI): read-out: TGI LN-caP
Summary of the method: as §1

HT-29 = experiment: SRB colorimetric cell growth inhibition assay, HT-29; assay type: cell-based; details: Homo sapiens; for GI50: GI=growth inhibition, read-out: GI50 HT-29; for IC (TGI): read-out: TGI HT-29
Summary of the method: as §1

A-549 = experiment: SRB colorimetric cell growth inhibition assay, A-549; assay type: cell-based; details: Homo sapiens; for GI50: GI=growth inhibition, read-out: GI50 A-549; for IC (TGI): read-out: TGI A-549
Summary of the method: as §1

IGROV = experiment: SRB colorimetric cell growth inhibition assay, IGROV; assay type: cell-based; details: Homo sapiens, IGROV; for GI50: GI=growth inhibition, read-out: GI50 IGROV; for IC (TGI): read-out: TGI IGROV
Summary of the method: as §1

K-562 = experiment: SRB colorimetric cell growth inhibition assay, K-562; assay type: cell-based; details: Homo sapiens; for GI50: GI=growth inhibition, read-out: GI50 K-562; for IC (TGI): read-out: TGI K-562
Summary of the method: as §1

IGROV-ET = experiment: SRB colorimetric cell growth inhibition assay, IGROV-ET (ET-743 resistant); assay type: cell-based; details: Homo sapiens; for GI50: GI=growth inhibition, read-out: GI50 IGROV-ET; for IC (TGI): read-out: TGI IGROV-ET
Summary of the method: as §1

DU-145 = experiment: SRB colorimetric cell growth inhibition assay, DU-145; assay type: cell-based; details: Homo sapiens; for GI50: GI=growth inhibition, read-out: GI50 DU-145; for IC (TGI): read-out: TGI DU-145
Summary of the method: as §1

[1] = total growth inhibition (cytostatic effect)
[2] = TGI=total growth inhibition (cytostatic effect)

SMILES: COc1cc(-c2c3c4cc(OC)c(O)cc4oc(=O)c3n3ccc4cc(O)c(OC)cc4c23)ccc1O [Compound 3, lamellarin D, reference compound]
- GI50 (PANC-1; PANC-1, PANC-1): 248 nM
- IC (TGI) (PANC-1; PANC-1, PANC-1, total growth inhibition (cytostatic effect)): 2.2 µM
- CC50 (PANC-1; PANC-1, read-out: LC50 PANC-1, PANC-1, cell killing (cytotoxic effect)): 20 µM
- GI50 (SK-BR-3; SK-BR-3, SK-BR-3): 106 nM
- IC (TGI) (SK-BR-3; SK-BR-3, SK-BR-3, total growth inhibition (cytostatic effect)): 0.767 µM
- CC50 (SK-BR-3; SK-BR-3, read-out: LC50 SK-BR-3, SK-BR-3, cell killing (cytotoxic effect)): 7.69 µM
- GI50 (SK-MEL-28; SK-MEL-28, MEL-28): 88.1 nM
- IC (TGI) (SK-MEL-28; SK-MEL-28, MEL-28, total growth inhibition (cytostatic effect)): 1.77 µM
- CC50 (SK-MEL-28; SK-MEL-28, read-out: LC50 MEL-28, MEL-28, cell killing (cytotoxic effect)): 11.3 µM
- GI50 (LoVo-Dox; LOVO-DOX): 420 nM
- IC (TGI) (LoVo-Dox; LOVO-DOX, total growth inhibition (cytostatic effect)): 1.67 µM
- CC50 (LoVo-Dox; read-out: LC50 LOVO-DOX, LOVO-DOX, cell killing (cytotoxic effect)): 20 µM
- CC50 (LoVo; read-out: LC50 LOVO, LOVO, cell killing (cytotoxic effect)): 2 µM
- GI50 (LoVo): 398 nM
- IC (TGI) (LoVo; [1]): 0.965 µM
- stimulation of DNA cleavage by topoisomerase I / inhibition of topoisomerase I (nicked DNA band) in DNA relaxation assay (human topoisomerase I): significantly amplified
- GI50 (LNCaP; LN-caP): 123 nM
- IC (TGI) (LNCaP; LN-caP, total growth inhibition (cytostatic effect)): 0.398 µM
- CC50 (LNCaP; read-out: LC50 LN-caP, LN-caP, cell killing (cytotoxic effect)): 1.06 µM
- GI50 (HT-29; HT-29, HT-29): 5.33 µM
- IC (TGI) (HT-29; HT-29, HT-29, total growth inhibition (cytostatic effect)): 19 µM
- CC50 (HT-29; HT-29, read-out: LC50 HT-29, HT-29, cell killing (cytotoxic effect)): 20 µM
- GI50 (A-549; A549, A-549): 20.4 nM
- IC (TGI) (A-549; A549, A-549, total growth inhibition (cytostatic effect)): 1.14 µM
- CC50 (A-549; A549, read-out: LC50 A-549, A-549, cell killing (cytotoxic effect)): 15.5 µM
- CC50 (IGROV; read-out: LC50 IGROV, IGROV, cell killing (cytotoxic effect)): 20 µM
- GI50 (IGROV): 236 nM
- IC (TGI) (IGROV; [1]): 1.06 µM
- GI50 (K-562; K562, K-562): 86.9 nM
- IC (TGI) (K-562; K562, K-562, total growth inhibition (cytostatic effect)): 0.791 µM
- CC50 (K-562; K562, read-out: LC50 K-562, K-562, cell killing (cytotoxic effect)): 8.15 µM
- GI50 (IGROV-ET; IGROV-ET): 214 nM
- IC (TGI) (IGROV-ET; IGROV-ET, total growth inhibition (cytostatic effect)): 1.16 µM
- CC50 (IGROV-ET; read-out: LC50 IGROV-ET, IGROV-ET, cell killing (cytotoxic effect)): 20 µM
- GI50 (DU-145; DU-145, DU-145): 19 nM
- IC (TGI) (DU-145; DU-145, DU-145, total growth inhibition (cytostatic effect)): 0.0797 µM
- CC50 (DU-145; DU-145, read-out: LC50 DU-145, DU-145, cell killing (cytotoxic effect)): 20 µM

SMILES: COc1cc(-c2c3c4cc(OC)c(OC(=O)[C@@H](N)CC(C)C)cc4oc(=O)c3n3ccc4cc(OC(=O)[C@@H](N)CC(C)C)c(OC)cc4c23)ccc1OC(=O)[C@@H](N)CC(C)C [Compound 39]
- GI50 (PANC-1; PANC-1, PANC-1): 164 nM
- CC50 (PANC-1; PANC-1, PANC-1, LC=cell killing (cytotoxic effect), read-out: LC50 PANC-1): 8.47 µM
- IC (TGI) (PANC-1; PANC-1, PANC-1, TGI=total growth inhibition (cytostatic effect)): 8.47 µM
- GI50 (SK-BR-3; SK-BR-3, SK-BR-3): 54.5 nM
- CC50 (SK-BR-3; SK-BR-3, SK-BR-3, LC=cell killing (cytotoxic effect), read-out: LC50 SK-BR-3): 8.47 µM
- IC (TGI) (SK-BR-3; SK-BR-3, SK-BR-3, TGI=total growth inhibition (cytostatic effect)): 1.46 µM
- GI50 (SK-MEL-28; SK-MEL-28, MEL-28): 33.9 nM
- CC50 (SK-MEL-28; SK-MEL-28, MEL-28, LC=cell killing (cytotoxic effect), read-out: LC50 MEL-28): 8.47 µM
- IC (TGI) (SK-MEL-28; SK-MEL-28, MEL-28, TGI=total growth inhibition (cytostatic effect)): 0.295 µM
- GI50 (LoVo-Dox; LOVO-DOX): 323 nM
- CC50 (LoVo-Dox; LOVO-DOX, LC=cell killing (cytotoxic effect), read-out: LC50 LOVO-DOX): 8.47 µM
- IC (TGI) (LoVo-Dox; LOVO-DOX, TGI=total growth inhibition (cytostatic effect)): 1.81 µM
- GI50 (LoVo): 321 nM
- CC50 (LoVo; LC=cell killing (cytotoxic effect), read-out: LC50 LOVO): 8.47 µM
- IC (TGI) (LoVo; [2]): 2.53 µM
- stimulation of DNA cleavage by topoisomerase I / inhibition of topoisomerase I (nicked DNA band) in DNA relaxation assay (human topoisomerase I): marked inhibition of topoisomerase I
- GI50 (LNCaP; LN-caP): 27.9 nM
- CC50 (LNCaP; LN-caP, LC=cell killing (cytotoxic effect), read-out: LC50 LN-caP): 8.47 µM
- IC (TGI) (LNCaP; LN-caP, TGI=total growth inhibition (cytostatic effect)): 0.252 µM
- GI50 (HT-29; HT-29, HT-29): 3.04 µM
- CC50 (HT-29; HT-29, HT-29, LC=cell killing (cytotoxic effect), read-out: LC50 HT-29): 8.47 µM
- IC (TGI) (HT-29; HT-29, HT-29, TGI=total growth inhibition (cytostatic effect)): 8.47 µM
- GI50 (A-549; A549, A-549): 46.4 nM
- CC50 (A-549; A549, A-549, LC=cell killing (cytotoxic effect), read-out: LC50 A-549): 8.47 µM
- IC (TGI) (A-549; A549, A-549, TGI=total growth inhibition (cytostatic effect)): 0.855 µM
- GI50 (IGROV): 34.1 nM
- CC50 (IGROV; LC=cell killing (cytotoxic effect), read-out: LC50 IGROV): 8.47 µM
- IC (TGI) (IGROV; [2]): 0.931 µM
- GI50 (K-562; K562, K-562): 35.9 nM
- CC50 (K-562; K562, K-562, LC=cell killing (cytotoxic effect), read-out: LC50 K-562): 8.47 µM
- IC (TGI) (K-562; K562, K-562, TGI=total growth inhibition (cytostatic effect)): 1.08 µM
- GI50 (IGROV-ET; IGROV-ET): 55 nM
- CC50 (IGROV-ET; IGROV-ET, LC=cell killing (cytotoxic effect), read-out: LC50 IGROV-ET): 8.47 µM
- IC (TGI) (IGROV-ET; IGROV-ET, TGI=total growth inhibition (cytostatic effect)): 0.369 µM
- GI50 (DU-145; DU-145, DU-145): 18 nM
- CC50 (DU-145; DU-145, DU-145, LC=cell killing (cytotoxic effect), read-out: LC50 DU-145): 8.47 µM
- IC (TGI) (DU-145; DU-145, DU-145, TGI=total growth inhibition (cytostatic effect)): 0.142 µM
